The values that follow come from patent publication US11730826B2, “Amphiphilic nanoparticles for delivery of CRISPR based therapy” (Massachusetts Institute of Technology, priority 2016, dated 2023).

For assay [1], the system named is BCL-2 siRNA. The experiment in a line: siRNA binding with platinum species by MALDI-TOF-MS. The following applies: 10-fold excess of platinum species. The protocol: A single-stranded siRNA (UCAGGUACUCAGUCAUCCACATT) was mixed with OxaPt(II) at a molar ratio of 1:10 in RNAase free water (RNA final concentration: 50 μM; Pt final concentration: 500 μM; total volume: 100 μL). The reaction mixture was placed in a 37° C. incubator and 10 μL of sample were removed at various time points to obtain MALDI-TOF-MS spectra (positive model). Analogous methods were employed to obtain spectra of the reaction products of siRNA with OxaPt(IV), CisPt(II) and CisPt(IV).

In another assay the test system is SMAD4 sgRNA. The experiment in a line: Activity of sgRNA after incubation with small molecule anticancer agents (WB in Cas9-expressing SKOV3 cells). The class given is cell-based, human. The following applies: for suppression of SMAD4 protein by sgRNA after coincubation: 12 h of coincubation, effective = levels <30% of baseline; for effect of co-incubation on SMAD4 sgRNA suppression: up to 24 h prior to transfection. The method, then: Activity of sgRNA after incubation with various small molecule anticancer agents: To determine the effects of platination or alkylation of sgRNA on silencing efficiency, SMAD4 sgRNA was first pre-incubated with various small molecules including Pt(II), Pt(IV)-COOH, doxorubicin, gemcitabine, camptothecin, or melphalan for either 12 h or 24 h, at 37° C., and at a drug to sgRNA molar ratio of 10:1 in RNase free water. The sgRNA was then purified by […] (Mw=3 kDa) and quantified by Nanodrop. The RNAi-MAX (Invitrogen, Thermo-fisher, USA) was utilized to transfect the reacted sgRNA (10 nM) into Cas9-expressing SKOV3 cells in 6-well plates. After 72 h, protein was recovered from cell lysates and analyzed by WB to quantify SMAD4 and GAPDH (product of a house-keeping gene; control) levels with respect to those of untreated cells. In addition, to compare the effects of Pt(II) and Pt(IV)-COOH interference with sgRNA-mediated recognition and target gene silencing by Cas9, various incubation periods were examined (i.e. 3, 6, and 9 h).

The next assay relates to 5′-GMP. The experiment in a line: 5′-GMP binding with platinum species by 1HNMR.
Assay [2] has as its system s-SMAD4. The experiment in a line: PicoGreen based melting temperature assay of s-SMAD4/ss-DNA heterodimer. The method, then: The Tm of the unreacted 20-mer and the ss-DNA (41° C.) resembled the calculated Tm of the heterodimer of the native SMAD4 sgRNA with DNA (43° C.).
Assay [3] relates to s-SMAD4. The experiment in a line: Kinetics of Pt-RNA adduct formation by AAS.
The next assay relates to Cytoplasmic RNA. The following applies: upon intracellular uptake; cited from earlier work.
The test system of assay [4] is s-SMAD4. Description: Reactions of sgRNA with anticancer agents by MALDI/TOF MS. The note with it: for time at which RNA adducts were formed: excess agent; for adducts in the RNA macromolecule: 24 h of incubation. The protocol:
Determination of the reactions of sgRNA with anticancer agents by MALDI/TOF MS: A 20-mer of RNA comprising the seed region of SMAD4 sgRNA (s-SMAD4) was mixed with Pt(II), Pt(IV)-COOH, doxorubicin, gemcitabine, camptothecin or melphalan at a molar ratio of 1:10 in RNase free water (RNA final concentration (10 μM); small molecule (100 μM)). The reaction mixture was shaken in a 37° C. incubator for a prescribed time interval (30 min, 1 h, 3 h, 6 h, 9 h, 12 h, or 24 h); and, 10 μL of each solution was analyzed by MALDI/TOF MS (positive mode), employing hydroxipicolinic acid as the matrix.

The test system of assay [5] is BCL-2 siRNA. Description: Silencing activity of BCL-2 siRNA preincubated with platinum species (qRT-PCR). In kind it is cell-based. The note with it: MCF-7 cells, RT-qPCR 48 h after transfection, pre-incubation 1 vs. 12 h. The protocol: 48 hours after transfection, total RNA was isolated using an RNeasy mini-kit (Qiagen, Germantown, Md.) and quantified by NanoDrop. 300 ng of mRNA were subsequently subjected to qRT-PCR analysis, targeting BCL-2 and glyceraldehyde 3-phosphate dehydrogenase (GAPDH) by using the SYBR Premix Ex (Takara, USA) and by using an Applied Biosystems StepOne Real-Time PCR System. Relative gene expression values were determined by the […] using StepOne Software v2.1 (Applied Biosystems). Data are presented as fold differences in […] normalized to GAPDH (house-keeping gene used as endogenous reference), employing a standard curve, and are reported relative to untreated (control) cells. The sequence of the primers used for BCL-2 and GAPDH are as follows: BCL-2 forward—5-[…]-3; Bcl-2 reverse—5-[…]-3; GAPDH forward—5-[…]-3; and GAPDH reverse primer—5-[…]-3 (Integrated DNA Technology. IW, USA). The specificity of each set of primers was verified by melting curve analysis.
(Real-time PCR tracks product formation cycle by cycle.)

Experimental for 5′-GMP: The binding kinetics of 5′-GMP to each platinum species were determined by measuring the relative amounts of free and Pt-bound 5′-GMP at each time point, integrating the ratio of the ^1HNMR peaks at 8.5 ppm to 8.09 ppm.

Regarding `N.N.[Cl][Pt][Cl]` [CisPt(II), cisplatin], the “earliest time Pt-siRNA adducts detected” value in the assay on BCL-2 siRNA [1] was at most 30 m. Besides, in the assay with SMAD4 sgRNA, the “incubation time beyond which sgRNA was unable to prevent protein expression” value is recorded as above 3 h and the “suppression of SMAD4 protein by sgRNA after coincubation” value is reported as “unable to effectively suppress expression of SMAD4 protein”. In addition, the “formation of Pt(NH3)2(5′-GMP)2 adducts” value in the assay on 5′-GMP (data not shown) is “rapid formation and time dependent increases”. Further, in the assay with s-SMAD4 [2], the “heterodimerization of pretreated s-SMAD4 with ss-DNA” value is recorded as “could not heterodimerize with ss-DNA at any temperature”. Further, in the assay on s-SMAD4 [3], the “Pt atoms bound per RNA macromolecule” value is given as “up to 6”. In the assay on s-SMAD4 [3] (incubated for 1 h with >10 μM), this compound showed an RNA platinated above 50%. Further, in the assay on s-SMAD4 [3] (pseudo-first order kinetics), the “apparent second-order rate constant” value is above 1e+07 M⁻¹ s⁻¹. Further, in the assay with Cytoplasmic RNA, the “concentrations of Pt-RNA adducts relative to Pt-DNA adducts” value is on record as 5-6 times. Besides, in the assay on s-SMAD4 [4] (aqueous solution, 37° C.), the “time at which RNA adducts were formed” value was found to be 30 min.

For the compound `O=C1[O][Pt]2([NH][C@@H]3CCCC[C@H]3[NH]2)[O]C1=O` [OxaPt(II), Oxaliplatin], the “earliest time Pt-siRNA adducts detected” value in the assay on BCL-2 siRNA [1] was found to be 1 h. Also, the “DACHPt(5′-GMP)2 adducts as share of the total 5′-GMP pool” value with 5′-GMP (over the first 6 h, 10 mM 5′-GMP, 5 mM Pt, 37° C.) is reported as above 40%. For the same compound, in the assay on BCL-2 siRNA [5], the “effect of incubation with siRNA on silencing efficiency” value was “concentration and time-dependent decrease in silencing efficiency”.

Consider `CC[C@@]1(O)C(=O)OCc2c1cc1n(c2=O)Cc2cc3ccccc3nc2-1` [camptothecin], for which the “effect of co-incubation on SMAD4 sgRNA suppression” value (from here on “effect of co-incubation”) in the assay with SMAD4 sgRNA is “did not alter the ability of SMAD4 sgRNA to effectively suppress expression levels”. Moreover, the “adducts in the RNA macromolecule” value with s-SMAD4 [4] is “no adducts were detected”.

As to `COc1cccc2c1C(=O)c1c(O)c3c(c(O)c1C2=O)C[C@@](O)(C(=O)CO)C[C@@H]3O[C@H]1C[C@H](N)[C@H](O)[C@H](C)O1` [doxorubicin], in the assay with SMAD4 sgRNA, the “effect of co-incubation” value was “did not alter the ability of SMAD4 sgRNA to effectively suppress expression levels”. In addition, the “adducts in the RNA macromolecule” value in the assay on s-SMAD4 [4] is reported as “physical association multimers in non-covalent complexes with RNA”.

Take `Nc1ccn([C@@H]2O[C@H](CO)[C@@H](O)C2(F)F)c(=O)n1` [gemcitabine]: the “effect of co-incubation” value in the assay with SMAD4 sgRNA is recorded as “did not alter the ability of SMAD4 sgRNA to effectively suppress expression levels”. Also, in the assay on s-SMAD4 [4], the “adducts in the RNA macromolecule” value is recorded as “no adducts were detected”.

For the compound `N[C@@H](Cc1ccc(N(CCCl)CCCl)cc1)C(=O)O` [melphalan], in the assay with SMAD4 sgRNA, the “incubation time beyond which sgRNA was unable to prevent protein expression” value is on record as above 6 h and the “suppression of SMAD4 protein by sgRNA after coincubation” value is “unable to effectively suppress expression of SMAD4 protein”. Also, the “time at which RNA adducts were formed” value in the assay with s-SMAD4 [4] stood at 60 min.
